# Measurements: patent US20180099931A1 (AbbVie S.à.r.l., priority 2016, published 2018)
# Read-outs that look alike come from different tables or passages of the source.
# Target: T1, F508delCFTR (Homo sapiens, UniProt P13569, DEL508-508)
# T1 construct: expressed in transfected cells; host or cells: CFBE41o- human lung-derived epithelial cells (CFBE4lo-F508delCFTR-HRP), doxycycline-inducible
# Assay: Cell Surface Expression-Horse Radish Peroxidase (CSE-HRP) Assay;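 for Maximum % activity (with co-corrector): co-corrector and positive control are both the same reference corrector at 2 µM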;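 for Maximum % activity (without co-corrector): percent of the 2 µM on-plate positive control corrector response above DMSO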
# Format: cell-based
# Conditions: for Emax: read-out: Maximum % activity (without co-corrector)
# [1] = test compound without co-corrector, read-out: EC50 (without co-corrector)
# [2] = with co-corrector (2 μM of 3-[(2R,4R)-4-({[1-(2,2-difluoro-1,3-benzodioxol-5-yl)cyclopropyl]carbonyl}amino)-7-methoxy-3,4-dihydro-2H-chromen-2-yl]benzoic acid), read-out: EC50 (with co-corrector)
# [3] = CSE-HRP, test compound without co-corrector, read-out: EC50 (without co-corrector)
# [4] = CSE-HRP, with co-corrector (2 μM of 3-[(2R,4R)-4-({[1-(2,2-difluoro-1,3-benzodioxol-5-yl)cyclopropyl]carbonyl}amino)-7-methoxy-3,4-dihydro-2H-chromen-2-yl]benzoic acid), read-out: EC50 (with co-corrector)
# [5] = CSE-HRP, with co-corrector (2 μM), maximum at any tested concentration, normalized to on-plate positive control
# [6] = CSE-HRP, without co-corrector, maximum at any tested concentration, normalized to on-plate positive control
# [7] = with co-corrector (2 μM), maximum at any tested concentration, normalized to on-plate positive control
# [8] = without co-corrector, maximum at any tested concentration, normalized to on-plate positive control
# [9] = test compound without co-corrector, maximum at any tested concentration, normalized to on-plate positive control
# [10] = with co-corrector (2 μM of 3-[(2R,4R)-4-({[1-(2,2-difluoro-1,3-benzodioxol-5-yl)cyclopropyl]carbonyl}amino)-7-methoxy-3,4-dihydro-2H-chromen-2-yl]benzoic acid), maximum at any tested concentration, normalized to on-plate positive control
# T1 sequence (P13569 with tags, fused parts or gaps DEL508-508): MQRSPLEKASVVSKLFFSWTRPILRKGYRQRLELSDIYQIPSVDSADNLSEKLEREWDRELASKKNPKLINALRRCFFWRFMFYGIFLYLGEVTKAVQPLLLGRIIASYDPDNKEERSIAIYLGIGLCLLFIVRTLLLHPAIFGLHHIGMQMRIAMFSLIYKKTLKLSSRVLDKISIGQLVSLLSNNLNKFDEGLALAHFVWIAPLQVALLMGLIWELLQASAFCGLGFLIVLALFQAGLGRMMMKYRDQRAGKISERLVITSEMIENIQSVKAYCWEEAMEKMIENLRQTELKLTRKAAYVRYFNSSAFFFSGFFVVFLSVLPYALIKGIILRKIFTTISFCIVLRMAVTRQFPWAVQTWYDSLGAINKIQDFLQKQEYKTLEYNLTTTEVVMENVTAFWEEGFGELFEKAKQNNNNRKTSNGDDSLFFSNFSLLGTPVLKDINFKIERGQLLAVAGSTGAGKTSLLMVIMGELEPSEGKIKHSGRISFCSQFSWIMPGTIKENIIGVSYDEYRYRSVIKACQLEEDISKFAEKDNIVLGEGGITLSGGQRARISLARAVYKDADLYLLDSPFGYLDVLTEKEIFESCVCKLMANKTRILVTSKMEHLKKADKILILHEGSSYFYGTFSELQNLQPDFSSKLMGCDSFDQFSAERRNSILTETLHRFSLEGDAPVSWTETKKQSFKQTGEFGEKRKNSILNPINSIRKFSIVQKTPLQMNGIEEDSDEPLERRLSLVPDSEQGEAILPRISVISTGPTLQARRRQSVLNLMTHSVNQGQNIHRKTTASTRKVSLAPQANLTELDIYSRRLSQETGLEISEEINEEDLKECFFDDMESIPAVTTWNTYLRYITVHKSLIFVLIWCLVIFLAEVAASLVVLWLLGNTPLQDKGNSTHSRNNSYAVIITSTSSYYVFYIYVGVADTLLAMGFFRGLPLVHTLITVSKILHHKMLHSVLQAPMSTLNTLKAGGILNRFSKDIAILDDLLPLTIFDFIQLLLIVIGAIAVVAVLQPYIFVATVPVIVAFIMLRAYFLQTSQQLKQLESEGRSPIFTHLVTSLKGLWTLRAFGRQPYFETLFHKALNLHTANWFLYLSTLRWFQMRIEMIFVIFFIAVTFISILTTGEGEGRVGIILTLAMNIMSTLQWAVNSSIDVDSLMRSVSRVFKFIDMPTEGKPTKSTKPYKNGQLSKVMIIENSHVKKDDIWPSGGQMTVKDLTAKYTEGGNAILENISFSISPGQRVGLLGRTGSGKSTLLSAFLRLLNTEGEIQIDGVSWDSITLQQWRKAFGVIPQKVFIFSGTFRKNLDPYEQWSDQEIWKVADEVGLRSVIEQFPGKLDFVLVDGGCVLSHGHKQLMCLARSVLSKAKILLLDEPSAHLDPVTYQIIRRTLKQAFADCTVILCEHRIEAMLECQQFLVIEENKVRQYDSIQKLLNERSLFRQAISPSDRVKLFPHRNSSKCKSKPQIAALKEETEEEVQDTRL
SMILES,EC50 [1] [µM],EC50 [2] [µM],EC50 [3] [µM],EC50 [4] [µM],Maximum % activity (with co-corrector) [5],Emax [6] [%],Maximum % activity (with co-corrector) [7],Emax [8] [%],Emax [9] [%],Maximum % activity (with co-corrector) [10],Maximum % activity (without co-corrector) [8]
COc1ncc([Si](C)(C)C)cc1CN[C@H]1[C@H](C(C)(C)C)[C@@H](C(=O)O)N(C(=O)[C@@H]2CCCC(F)(F)C2)[C@H]1c1ccccc1 [Example I-189],< 1,< 1,,,,,,,,,
COc1cc(C(F)(F)F)ccc1CN[C@H]1[C@H](C2(C)CC2)[C@@H](C(=O)O)N(C(=O)C2CCCCC2)[C@H]1c1ccccc1 [II-303],,,1 to 10,1 to 10,+++ (≥350),< 100,,,,,
COc1ncc(C2CCC2)cc1CN[C@H]1[C@H](C(C)(C)C)[C@@H](C(=O)O)N(C(=O)C2CCCCC2)[C@H]1c1cccc2c1OC(C)(C)C2 [Example I-307],,,< 1,< 1,+++ (≥350),> 200,,,,,
COc1cc(C(F)(F)F)ccc1CN[C@@H]1[C@@H](C(C)(C)C)[C@H](C(=O)O)N(C(=O)[C@H](C)c2ccccc2)[C@@H]1c1ccccc1 [Example I-45],> 10,> 10,,,,,+ (<150),< 100,,,
COc1ccc(-c2cccs2)cc1CN[C@H]1[C@H](C(C)(C)C)[C@@H](C(=O)O)N(C(=O)C2CCCCC2)[C@H]1c1ccccc1 [II-275],,,< 1,< 1,+++ (≥350),> 200,,,,,
COc1ccc(CN[C@H]2[C@H](C(C)(C)C)[C@@H](C(=O)O)N(C(=O)C3CCCCC3)[C@H]2c2ccccc2)cc1C(F)(F)F [II-127],,,1 to 10,1 to 10,++ (≥150 and <350),< 100,,,,,
CC(C)(C)[C@H]1[C@H](NCc2ccc3c(c2)OCCO3)[C@H](c2ccccc2)N(C(=O)C2CCCCC2)[C@@H]1C(=O)O [Example I-47],> 10,1 to 10,,,,,++ (≥150 and <350),< 100,,,
COc1ccc(C(C)(C)C)cc1CN[C@H]1[C@H](C(C)(C)C)[C@@H](C(=O)O)N(C(=O)C2CCCCS2(=O)=O)[C@H]1c1ccccc1 (stereo partly drawn) [II-153],,,1 to 10,1 to 10,+++ (≥350),> 200,,,,,
COc1cc(C(F)(F)F)ccc1CN[C@@H]1[C@@H](C(C)(C)C)[C@H](C(=O)O)N(C(=O)[C@@H](OC)c2ccccc2)[C@@H]1c1ccccc1 [III-101],> 10,1 to 10,,,,,++ (≥150 and <350),,< 100,,
"COc1ccc(C(C)(C)C)cc1CN[C@H]1[C@H](C(C)(C)C)[C@@H](C(=O)O)N(C(=O)[C@@H]2CCCO2)[C@H]1c1cccnc1C1CC1 [Example 96, (2S,3S,4S,5S)-3-tert-butyl-4-{[(5-tert-butyl-2-methoxyphenyl)methyl]amino}-5-(2-cyclopropylpyridin-3-yl)-1-[(2S)-oxolane-2-carbonyl]pyrrolidine-2-carboxylic acid]",1 to 10,1 to 10,,,,,+++ (≥350),100 to 200,,,
COc1cc(C(F)(F)F)ccc1CN[C@H]1[C@H](C(C)(C)C)[C@@H](C(=O)O)N(C(=O)C2CCCCC2)[C@H]1c1cccnc1N(C)C [Example I-44],1 to 10,1 to 10,,,,,+++ (≥350),100 to 200,,,
"COc1ccc(C(C)(C)C)cc1CN[C@H]1[C@H](C(C)(C)OC)[C@@H](C(=O)O)N(C(=O)C2CCCCC2)[C@H]1c1cccnc1N(C)C [Example 41, (2S,3S,4S,5S)-4-{[(5-tert-butyl-2-methoxyphenyl)methyl]amino}-1-(cyclohexanecarbonyl)-5-[2-(dimethylamino)pyridin-3-yl]-3-(2-methoxypropan-2-yl)pyrrolidine-2-carboxylic acid]",1 to 10,< 1,,,,,+++ (≥350),> 200,,,

# The remaining lines, values ahead:
EC50 [1] [µM],EC50 [2] [µM],EC50 [3] [µM],EC50 [4] [µM],Maximum % activity (with co-corrector) [5],Emax [6] [%],Maximum % activity (with co-corrector) [7],Emax [8] [%],Emax [9] [%],Maximum % activity (with co-corrector) [10],Maximum % activity (without co-corrector) [8],SMILES
1 to 10,1 to 10,,,,,+++ (≥350),100 to 200,,,,COc1ncc(C2CCC2)cc1CN[C@H]1[C@H](C(C)(C)C)[C@@H](C(=O)O)N(C(=O)C2Cc3ccccc3CO2)[C@H]1c1ccccc1 (stereo partly drawn) [Example I-206]
< 1,< 1,,,,,,,> 200,+++ (≥350),,COc1ccc(C23CC(C2)C3)cc1CN[C@H]1[C@H](C(C)(C)C)[C@@H](C(=O)O)N(C(=O)[C@H]2CCCC(F)(F)C2)[C@H]1c1ccccc1 [II-509]
1 to 10,< 1,,,,,+++ (≥350),> 200,,,,COc1ccc(C23CC(C2)C3)cc1CN[C@H]1[C@H](C(C)(C)C)[C@@H](C(=O)O)N(C(=O)OC(C)C)[C@H]1c1ccccc1 [Example I-210]
1 to 10,1 to 10,,,,,+++ (≥350),> 200,,,,"COc1ncc(C(F)(F)F)cc1CN[C@H]1[C@H](C(C)(C)C)[C@@H](C(=O)O)N(C(=O)OC(C)C)[C@H]1c1ccccc1C(C)C [Example 77, (2S,3S,4S,5S)-3-tert-butyl-4-({[2-methoxy-5-(trifluoromethyl)pyridin-3-yl]methyl}amino)-1-{[(propan-2-yl)oxy]carbonyl}-5-[2-(propan-2-yl)phenyl]pyrrolidine-2-carboxylic acid]"
1 to 10,< 1,,,,,+++ (≥350),,,,+ (<100),"COc1ccc(C(C)(C)C)cc1CN[C@H]1[C@H](C(C)(C)C)[C@@H](C(=O)O)N(C(=O)C2Cc3ccccc3O2)[C@H]1c1cccnc1OC (single isomer, unassigned) [Example I-166]"
1 to 10,< 1,,,,,,,> 200,+++ (≥350),,COc1ccc(C(C)(C)C)cc1CN[C@H]1[C@H](C(C)(C)C)[C@@H](C(=O)O)N(C(=O)C2CC=CC2)[C@H]1c1ccccc1 [II-321]
1 to 10,1 to 10,,,,,++ (≥150 and <350),,< 100,,,COc1cc(C(F)(F)F)ccc1CN[C@H]1[C@H](C(C)(C)C)[C@@H](C(=O)O)N(C(=O)c2cccnc2)[C@H]1c1ccccc1 [III-163]
1 to 10,< 1,,,,,+++ (≥350),,100 to 200,,,COc1cc2c(cc1CN[C@H]1[C@H](C(C)(C)C)[C@@H](C(=O)O)N(C(=O)OC(C)C)[C@H]1c1ccccc1)C(C)(C)CCC2(C)C [III-227]
1 to 10,1 to 10,,,,,+++ (≥350),100 to 200,,,,"COc1ccc(C(C)(C)C)cc1CN[C@H]1[C@H](C(C)(C)C)[C@@H](C(=O)O)N(C(=O)OC2COC2)[C@H]1c1ccccc1 [Example I-244, (2S,3S,4S,5S)-3-tert-butyl-4-{[(5-tert-butyl-2-methoxyphenyl)methyl]amino}-1-{[(oxetan-3-yl)oxy]carbonyl}-5-phenylpyrrolidine-2-carboxylic acid]"
1 to 10,1 to 10,,,,,,,> 200,+++ (≥350),,COc1ncc(C(F)(F)F)cc1CN[C@H]1[C@H](C(C)(C)C)[C@@H](C(=O)O)N(C(=O)OC(C)C)[C@H]1c1ccccc1 [II-425]
< 1,< 1,,,,,,,> 200,+++ (≥350),,COc1ccc(C(C)(C)C)cc1CN[C@H]1[C@H](C(C)(C)C)[C@@H](C(=O)O)N(C(=O)C2CCc3ccccc32)[C@H]1c1ccccc1 (stereo partly drawn) [II-337]
